Laboratory results reported in patent publication US20090286876A1, “NEUROPROTECTIVE BENZOATE AND BENZAMIDE COMPOUNDS” (Samaritan Pharmaceuticals, Inc., priority 2003, published 2009).
Like-named read-outs stand apart in the source and are kept apart here.

What was measured:
PC12 cells [1] = test: Aβ1-42-induced free radical production (2,7-DCF fluorescent probe); conditions: compound 1-100 μM 24 h pre-incubation; Aβ1-42 0.1-10 μM 24 h
PC12 cells [2] = test: Reversal of Aβ1-42-induced ATP depletion (ATPLite-M assay); conditions: for ATP decrease induced by Aβ1-42, Aβ1-42 control = 100% reduction: 24 h pre-incubation, 24 h; for effect on Aβ1-42-induced ATP decrease, in words: compound 1-100 μM, Aβ1-42 0.1-10 μM
sigma-1 receptor = target: T1, sigma-1 receptor (Homo sapiens, UniProt Q99720); test: Displacement of [3H](+)pentazocine from sigma-1 receptor expressed in Jurkat cells; format: binding
T1 construct: sigma-1 receptor expressed in Jurkat cells; endogenous in cells; host or cells: Jurkat cells
T1 sequence (Q99720 whole entry): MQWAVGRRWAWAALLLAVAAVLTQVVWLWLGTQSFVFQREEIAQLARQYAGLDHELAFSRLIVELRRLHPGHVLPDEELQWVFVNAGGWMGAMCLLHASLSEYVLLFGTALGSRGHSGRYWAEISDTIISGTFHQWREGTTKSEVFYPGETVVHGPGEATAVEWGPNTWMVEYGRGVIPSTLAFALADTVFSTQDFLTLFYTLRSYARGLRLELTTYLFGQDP

PC12 cells [3] = test: Neuroprotection against Aβ1-42 cytotoxicity, MTT assay (NADPH diaphorase activity); format: cell-based, rat
PC12 cells [4] = test: Glutamate-induced excitotoxicity, MTT assay; format: cell-based, rat; conditions: glutamate 100 μM 24 h; for neuroprotective effect against glutamate-induced cell death (MTT), in words: compound 0.3-30 μM 24 h pre-incubation
σ2-receptor = σ2-receptor (Homo sapiens, UniProt Q5BJF2); test: σ2-receptor binding
σ2-receptor, sequence (Q5BJF2 whole entry, species assumed): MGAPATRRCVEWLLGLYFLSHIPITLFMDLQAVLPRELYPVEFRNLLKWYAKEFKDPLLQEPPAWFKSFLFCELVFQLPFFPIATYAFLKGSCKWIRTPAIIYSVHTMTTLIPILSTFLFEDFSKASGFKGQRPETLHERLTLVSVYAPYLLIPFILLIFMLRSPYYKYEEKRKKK

[5] = cited from earlier work
HMG-CoA reductase mRNA = HMG-CoA reductase mRNA synthesis, real-time quantitative PCR; format: cell-based, rat
[6] = compound 1-100 μM, Aβ1-42 0.1-10 μM

Compound | effect on Aβ1-42-induced free radical production, in words (PC12 cells [1]) | ATP decrease induced by Aβ1-42, Aβ1-42 control = 100% reduction (PC12 cells [2]; compound 1 μM, Aβ1-42 0.1 μM) | ATP decrease induced by Aβ1-42, Aβ1-42 control = 100% reduction (PC12 cells [2]; compound 1 μM, Aβ1-42 1 μM) | ATP decrease induced by Aβ1-42, Aβ1-42 control = 100% reduction (PC12 cells [2]; compound 1 μM, Aβ1-42 10 μM) | ATP decrease induced by Aβ1-42, Aβ1-42 control = 100% reduction (PC12 cells [2]; compound 10 μM, Aβ1-42 0.1 μM) | ATP decrease induced by Aβ1-42, Aβ1-42 control = 100% reduction (PC12 cells [2]; compound 10 μM, Aβ1-42 1 μM) | ATP decrease induced by Aβ1-42, Aβ1-42 control = 100% reduction (PC12 cells [2]; compound 10 μM, Aβ1-42 10 μM) | ATP decrease induced by Aβ1-42, Aβ1-42 control = 100% reduction (PC12 cells [2]; compound 100 μM, Aβ1-42 0.1 μM) | ATP decrease induced by Aβ1-42, Aβ1-42 control = 100% reduction (PC12 cells [2]; compound 100 μM, Aβ1-42 1 μM) | ATP decrease induced by Aβ1-42, Aβ1-42 control = 100% reduction (PC12 cells [2]; compound 100 μM, Aβ1-42 10 μM) | effect on Aβ1-42-induced ATP decrease, in words (PC12 cells [2]) | protective effect against Aβ1-42 neurotoxicity (MTT), in words (PC12 cells [3]; [6]) | further results
CCN(CC)CC(=O)Nc1c(C)cccc1C [Lidocaine, (2-diethylamino)-N-(2,6-dimethylphenyl)-acetamide] | exhibited a trend to reduce the Aβ1-42-induced free radical production | 38.7 ± 26.1 % | 62.0 ± 8.5 % | 53.5 ± 20.3 % | 47.2 ± 28.7 % | 69.0 ± 13.0 % | 65.0 ± 7.6 % | 65.3 ± 45.2% | 81.3 ± 8.7% | 70.1 ± 4.8 % | restored ATP concentrations in PC12 cells exposed to 0.1 and 1 μM Aβ1-42 | – | –
CCN(CC)CCNC(=O)c1ccc(N)cc1 [Procainamide] | exhibited a trend to reduce the Aβ1-42-induced free radical production | 46.8 ± 25.9 % | 51.4 ± 17.3 % | 56.5 ± 11.6 % | 60.4 ± 5.8 % | 61.7 ± 10.8 % | 56.2 ± 6.1 % | 40.9 ± 14.5 % | 40.8 ± 6.5 % | 52.2 ± 10.2 % | significantly prevented the Aβ1-42-induced decrease of intracellular ATP levels | – | –
CCN(CC)CCOC(=O)c1ccc(N)cc1 [Procaine, 4-aminobenzoic acid 2-(diethylamino)ethyl ester] | exhibited a trend to reduce the Aβ1-42-induced free radical production | 64.0 ± 24.4 % | 67.8 ± 13.8 % | 86.8 ± 5.5% | 56.0 ± 16.4 % | 97.0 ± 45.5% | 89.8 ± 5.1% | 42.8 ± 16.9 % | 69.6 ± 12.1 % | 83.6 ± 20.6% | protected against the 0.1 μM Aβ1-42-induced depletion of ATP concentrations in a dose-dependent manner | important protective effect against 0.1 and 1 μM Aβ1-42 induced toxicity | Hill coefficient (nH) (sigma-1 receptor): 1.0; IC50 (sigma-1 receptor): 4.3 µM; reduction of the NADPH diaphorase inhibition induced by Aβ1-42 (PC12 cells [3]; 1 and 10 μM procaine): at least 30%; neuroprotective effect against glutamate-induced cell death (MTT), in words (PC12 cells [4]): prevented the glutamate-induced neurotoxicity in a biphasic manner; IC50 (σ2-receptor): > 10 µM; pKa [5]: 8.9; basal level of HMG-CoA reductase mRNA, in words (HMG-CoA reductase mRNA; control PC12 cells, no Aβ1-42): did not affect; level of HMG-CoA reductase mRNA induced by Aβ1-42, in words (HMG-CoA reductase mRNA; procaine 1 or 10 μM 18 h pre-incubation, Aβ1-42 1 μM 24 h): decreased in a dose-dependent manner
CCN1CCN(OC(=O)c2ccc(OC)c(OC)c2OC)CC1 [SP008, (4-ethylpiperazinyl-1-yl)-2′,3′,4′-trimethoxybenzoate] | – | – | – | – | – | – | – | – | – | – | – | – | neuroprotective effect against glutamate-induced cell death (MTT), in words (PC12 cells [4]): more important than that of procaine effect at the same concentration; concentration of maximum (peak) protective effect against glutamate (PC12 cells [4]; compound tested at 0.3-30 μM): 3 µM
CC(=O)OC1CC(O)C2(C)C(OC(C)=O)C3C(CC(C)C12)OC(=O)C3CN1CCN(C(=O)c2ccccc2)CC1 (stereo not drawn) [SP015, Acetic acid 7-acetoxy-3-(4-benzoyl-piperazin-1-yl-methyl)-5-hydroxy-4a, 8-dimethyl-2-oxo-dodecahydro-azuleno[6,5-b]furan-4-yl ester] | amplified the Aβ1-42-induced free radicals production | 46.3 ± 10.1 % | 55.6 ± 5.3 % | 32.8 ± 9.4 % | 99.2 ± 13.1% | 124 ± 24.7% | 104 ± 22.5% | 91.5 ± 1.5% | 85.6 ± 12.3% | 73.8 ± 6.8 % | able to reverse the effect of Aβ1-42 on ATP | protected only at 1 and 10 μM concentrations against the highest concentration of Aβ1-42 | –
CC(=O)OC1CC(OC(C)=O)C2(C)C(O)C3C(CC(C)C12)OC(=O)C3CN1CCN(C(=O)c2ccccc2)CC1 (stereo not drawn) [SP016, acetic acid 5-acetoxy-3-(4-benzoyl-piperazin-1-yl-methyl)-4-hydroxy-4a, 8-dimethyl-2-oxo-dodecahydro-azuleno[6,5-b]furan-7-yl ester] | amplified the Aβ1-42-induced free radicals production | 49.5 ± 10.2 % | 81.5 ± 4.2% | 96.8 ± 30.6% | 101 ± 7.8% | 105 ± 10.1% | 110 ± 10.1% | 86.3 ± 15.7% | 100 ± 17.8% | 121 ± 29.0% | – | no protective activity | –
CC1=CCC23OC2(C)CCC2C(CN4CCN(C(=O)c5ccccc5)CC4)C(=O)OC2C13 (stereo not drawn) [SP017, 3-(4-benzoyl-piperazin-1-yl-methyl)-6,6a-epoxy-6,9-dimethyl-3a,4,5,6,6a,7,9a,9b-octahydro-3H-azuleno[4,5-b]furan-2-one] | amplified the Aβ1-42-induced free radicals production | 28.1 ± 7.2 % | 42.6 ± 5.8 % | 73.0 ± 12.1 % | 54.9 ± 15.6 % | 44.9 ± 8.1 % | 68.9 ± 7.3 % | 115 ± 21.4% | 108 ± 20.8% | 122 ± 6.7% | able to reverse the effect of Aβ1-42 on ATP | at 100 μM potentiated the toxic effect of Aβ1-42 | efficacy range, inhibition of Aβ1-42 toxicity (mitochondrial diaphorase activity) (PC12 cells [3]): 30-70%
CCCCNc1ccc(C(=O)OCCN(C)C)cc1 [Tetracaine] | exhibited a trend to reduce the Aβ1-42-induced free radical production | 54.8 ± 4.0 % | 32.2 ± 5.5 % | 45.5 ± 6.1 % | 59.5 ± 9.6 % | 58.0 ± 18.9 % | 41.9 ± 4.2 % | 59.3 ± 10.5 % | 45.4 ± 2.2 % | 45.8 ± 6.5 % | significantly prevented the Aβ1-42-induced decrease of intracellular ATP levels | – | –
(+)-MK801 | – | – | – | – | – | – | – | – | – | – | – | – | protective effect against Aβ1-42 neurotoxicity (MTT), in words (PC12 cells [3]): lessens in a dose-dependent manner PC12 cell viability decrease induced by Aβ1-42
Aβ1-42: 42 amino acid β-amyloid peptide purchased from American Peptide Co., used as neurotoxic insult | – | – | – | – | – | – | – | – | – | – | – | – | HMG-CoA mRNA synthesis (HMG-CoA reductase mRNA; Aβ1-42 1 μM, 24 h, compared to control PC12 cells): 1.48±0.17 times the control level
